How the values were obtained:
Format in all cases: cell-based
WIZ = biological target: T1, WIZ (Homo sapiens, UniProt O95785+Q96SW2); assay: HUDEP-2 WIZ HiBiT degradation assay; details: HiBiT-tagged WIZ degradation in HUDEP-2 cells, 24 hours of treatment; read-out: WIZ EC50
T1 construct: HUDEP-2 cells engineered to express a HiBiT tag in either the WIZ (Widely interspaced zinc finger) or ZBTB7A
How it was run: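 HiBiT-tagged HUDEP-2 cells at 1.0×10^6 cells/ml in SFEM II with SCF, EPO, dexamethasone and doxycycline, treated 24 h at 37 °C with a 10-point series ([…]). Luminescence after HiBiT lytic detection, normalized to DMSO; EC50 and Y-min from fitted curves.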

ZBTB7A = biological target: T2, ZBTB7A (Homo sapiens, UniProt O95365+Q96SW2); assay: HUDEP-2 ZBTB7A HiBiT degradation assay; details: HiBiT-tagged ZBTB7A degradation in HUDEP-2 cells, 24 hours of treatment; read-out: ZBTB7A EC50
T2 construct: HUDEP-2 cells engineered to express a HiBiT tag in either the WIZ (Widely interspaced zinc finger) or ZBTB7A
How it was run: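 HiBiT-tagged HUDEP-2 cells were pre-cultured 48 h in IMDM with EPO, SCF, doxycycline and 5% human plasma, then exposed to compounds at 1.0×10^6 cells/ml for 24 h at 37 °C. Nano-Glo HiBiT lytic luminescence, normalised to DMSO over 10 concentrations, gave EC50 and Y-min.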

HbF = HbF HiBiT induction assay in HUDEP-2 cells; details: HUDEP-2 cells with HiBiT tag in HBG1/2, 72 hours of treatment; area under the dose response curve, higher AUC = greater HbF induction
How it was run: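 HUDEP-2 cells carrying a HiBiT tag on HBG1/2 were exposed to compounds for 72 h at 37° C, 5% CO2, in IMDM with EPO, hSCF, DOX, transferrin, insulin, heparin and 5% human plasma. HiBiT luminescence was read after lytic detection; HbF induction is expressed as dose-response AUC, alongside EC50 and Ymax.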

T1 sequence (O95785 whole entry): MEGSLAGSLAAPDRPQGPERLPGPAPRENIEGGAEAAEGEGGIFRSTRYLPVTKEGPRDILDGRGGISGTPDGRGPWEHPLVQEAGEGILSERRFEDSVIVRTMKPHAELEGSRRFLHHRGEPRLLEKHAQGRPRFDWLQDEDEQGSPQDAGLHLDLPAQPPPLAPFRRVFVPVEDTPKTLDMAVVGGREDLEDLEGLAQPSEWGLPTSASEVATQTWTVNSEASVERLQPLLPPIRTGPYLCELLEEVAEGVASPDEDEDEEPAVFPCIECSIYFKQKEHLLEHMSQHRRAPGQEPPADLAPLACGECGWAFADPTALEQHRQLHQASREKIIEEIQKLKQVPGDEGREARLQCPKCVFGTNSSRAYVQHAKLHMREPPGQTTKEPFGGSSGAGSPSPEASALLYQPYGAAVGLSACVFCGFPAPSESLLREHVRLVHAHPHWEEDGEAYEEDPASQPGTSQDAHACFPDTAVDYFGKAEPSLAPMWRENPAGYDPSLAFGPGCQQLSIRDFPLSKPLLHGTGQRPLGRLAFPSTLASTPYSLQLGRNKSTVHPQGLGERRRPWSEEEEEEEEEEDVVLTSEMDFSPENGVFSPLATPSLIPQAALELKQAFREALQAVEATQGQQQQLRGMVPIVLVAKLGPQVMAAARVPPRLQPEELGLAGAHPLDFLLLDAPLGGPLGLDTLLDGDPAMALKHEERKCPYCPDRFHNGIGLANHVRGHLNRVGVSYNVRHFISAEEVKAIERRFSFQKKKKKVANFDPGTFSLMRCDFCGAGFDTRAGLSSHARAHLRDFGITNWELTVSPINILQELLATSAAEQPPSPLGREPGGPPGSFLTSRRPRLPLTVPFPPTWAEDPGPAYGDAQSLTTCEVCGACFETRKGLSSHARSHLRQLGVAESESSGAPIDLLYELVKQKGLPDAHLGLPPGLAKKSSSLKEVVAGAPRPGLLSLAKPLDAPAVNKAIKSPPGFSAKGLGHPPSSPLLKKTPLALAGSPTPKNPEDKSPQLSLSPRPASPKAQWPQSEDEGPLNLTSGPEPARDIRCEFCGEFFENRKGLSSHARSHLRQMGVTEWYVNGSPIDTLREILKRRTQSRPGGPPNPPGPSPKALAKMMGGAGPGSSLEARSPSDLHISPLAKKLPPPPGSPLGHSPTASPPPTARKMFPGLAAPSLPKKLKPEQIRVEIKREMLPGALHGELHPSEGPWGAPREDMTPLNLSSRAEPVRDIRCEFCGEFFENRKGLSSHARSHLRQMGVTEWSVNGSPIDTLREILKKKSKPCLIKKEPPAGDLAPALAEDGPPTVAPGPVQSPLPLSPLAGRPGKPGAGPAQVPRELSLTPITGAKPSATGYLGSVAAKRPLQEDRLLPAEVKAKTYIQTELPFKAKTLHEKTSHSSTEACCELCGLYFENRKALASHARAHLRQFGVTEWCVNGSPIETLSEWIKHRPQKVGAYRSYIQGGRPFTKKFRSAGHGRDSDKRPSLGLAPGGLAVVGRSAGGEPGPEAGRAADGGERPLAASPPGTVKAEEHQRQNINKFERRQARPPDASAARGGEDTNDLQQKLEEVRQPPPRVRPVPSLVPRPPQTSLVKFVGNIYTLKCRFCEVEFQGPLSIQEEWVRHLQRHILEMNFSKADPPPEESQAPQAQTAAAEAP
T1 sequence (Q96SW2 whole entry): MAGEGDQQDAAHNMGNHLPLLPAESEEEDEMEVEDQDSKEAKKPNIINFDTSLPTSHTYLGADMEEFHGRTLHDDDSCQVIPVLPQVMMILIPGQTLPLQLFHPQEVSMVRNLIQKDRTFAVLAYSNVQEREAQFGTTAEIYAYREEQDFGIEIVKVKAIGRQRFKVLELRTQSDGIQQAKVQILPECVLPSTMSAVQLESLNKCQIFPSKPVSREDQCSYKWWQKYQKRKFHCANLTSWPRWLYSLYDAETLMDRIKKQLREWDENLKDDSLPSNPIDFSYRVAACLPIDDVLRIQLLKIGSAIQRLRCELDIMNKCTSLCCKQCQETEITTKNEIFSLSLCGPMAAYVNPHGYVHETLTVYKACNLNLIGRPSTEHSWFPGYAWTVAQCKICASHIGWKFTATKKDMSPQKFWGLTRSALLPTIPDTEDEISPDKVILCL
T1 sequence (Q16531 whole entry partner): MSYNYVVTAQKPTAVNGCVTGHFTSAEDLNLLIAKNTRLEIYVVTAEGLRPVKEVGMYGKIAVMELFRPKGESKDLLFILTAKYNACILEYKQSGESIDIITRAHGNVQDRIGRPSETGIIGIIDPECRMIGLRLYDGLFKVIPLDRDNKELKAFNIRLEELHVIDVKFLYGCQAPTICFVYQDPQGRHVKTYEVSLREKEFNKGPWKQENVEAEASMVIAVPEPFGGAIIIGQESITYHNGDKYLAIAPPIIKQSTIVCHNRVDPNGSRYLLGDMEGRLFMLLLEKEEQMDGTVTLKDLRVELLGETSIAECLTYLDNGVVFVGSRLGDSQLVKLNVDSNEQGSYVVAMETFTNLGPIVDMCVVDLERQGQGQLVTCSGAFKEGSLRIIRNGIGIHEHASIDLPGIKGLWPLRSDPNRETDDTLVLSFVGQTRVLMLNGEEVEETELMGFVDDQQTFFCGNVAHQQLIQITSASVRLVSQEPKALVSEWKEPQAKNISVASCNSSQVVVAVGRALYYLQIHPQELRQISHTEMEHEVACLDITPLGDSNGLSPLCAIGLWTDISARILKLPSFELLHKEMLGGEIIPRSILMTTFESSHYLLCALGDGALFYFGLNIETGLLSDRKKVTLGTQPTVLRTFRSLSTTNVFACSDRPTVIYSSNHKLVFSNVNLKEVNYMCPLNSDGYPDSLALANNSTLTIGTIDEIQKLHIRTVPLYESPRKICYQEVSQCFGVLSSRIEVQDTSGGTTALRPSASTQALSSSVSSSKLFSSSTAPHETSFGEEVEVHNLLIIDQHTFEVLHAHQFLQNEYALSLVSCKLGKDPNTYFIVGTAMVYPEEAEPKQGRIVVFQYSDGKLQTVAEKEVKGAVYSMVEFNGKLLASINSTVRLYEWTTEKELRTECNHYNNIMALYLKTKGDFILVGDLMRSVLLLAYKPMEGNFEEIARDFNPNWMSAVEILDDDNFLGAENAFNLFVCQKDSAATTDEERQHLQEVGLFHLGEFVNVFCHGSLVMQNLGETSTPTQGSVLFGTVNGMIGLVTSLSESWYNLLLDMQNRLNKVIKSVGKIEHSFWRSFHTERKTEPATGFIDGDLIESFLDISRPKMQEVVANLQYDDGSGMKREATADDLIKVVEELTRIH
T2 sequence (O95365 whole entry): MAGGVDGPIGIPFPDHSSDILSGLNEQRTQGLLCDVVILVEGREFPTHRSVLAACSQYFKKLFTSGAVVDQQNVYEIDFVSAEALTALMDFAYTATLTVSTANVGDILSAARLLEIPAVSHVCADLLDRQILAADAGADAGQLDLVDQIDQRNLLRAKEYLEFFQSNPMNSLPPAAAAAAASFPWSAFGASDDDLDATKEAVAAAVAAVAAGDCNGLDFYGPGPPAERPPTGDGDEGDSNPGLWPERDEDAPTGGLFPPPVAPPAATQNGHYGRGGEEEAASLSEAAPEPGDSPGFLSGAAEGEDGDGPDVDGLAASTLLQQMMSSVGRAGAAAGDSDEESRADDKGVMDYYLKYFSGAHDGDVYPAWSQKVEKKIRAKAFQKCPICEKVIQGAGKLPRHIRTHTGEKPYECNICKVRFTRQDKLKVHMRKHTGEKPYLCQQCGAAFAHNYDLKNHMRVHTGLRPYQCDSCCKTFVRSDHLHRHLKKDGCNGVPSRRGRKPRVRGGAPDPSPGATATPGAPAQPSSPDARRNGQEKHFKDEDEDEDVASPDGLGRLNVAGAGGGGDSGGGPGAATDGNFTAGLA
T2 sequence (Q96SW2 whole entry): as the sequence (Q96SW2 whole entry) above
T2 sequence (Q16531 whole entry partner): as the sequence (Q16531 whole entry partner) above

For `CN1C(=O)CCc2cc(C3CCN(C(=O)C4CC4)CC3)c(Nc3cccc4c3C(=O)N(C3CCC(=O)NC3=O)C4=O)cc21` (stereo not drawn) [Compound 93, 4-((6-(1-(cyclopropanecarbonyl)piperidin-4-yl)-1-methyl-2-oxo-1,2,3,4-tetrahydroquinolin-7-yl)amino)-2-(2,6-dioxopiperidin-3-yl)isoindoline-1,3-dione], the DC50 (WIZ) was 4 nM, the DC50 (ZBTB7A) was 15 nM and the “HBF AUC” value (HbF) was “++ (++ = 100 ≤ AUC < 150)”.
For `C=CN1C(=O)CCc2cc(-c3ccnc(C)c3)c(Nc3cccc4c3C(=O)N(C3CCC(=O)NC3=O)C4=O)cc21` (stereo not drawn) [Compound 94, 2-(2,6-dioxopiperidin-3-yl)-4-((6-(2-methylpyridin-4-yl)-2-oxo-1-vinyl-1,2,3,4-tetrahydroquinolin-7-yl)amino)isoindoline-1,3-dione], the DC50 (WIZ) was 17 nM, the DC50 (ZBTB7A) was 28 nM and the “HBF AUC” value (HbF) was “+ (+ = 15 ≤ AUC < 100)”.
`Cc1cc(-c2nc3c(cc2Nc2cccc4c2C(=O)N([C@H]2CCC(=O)NC2=O)C4=O)N(C)C(=O)CC3)ccn1` [Compound 95, (S)-2-(2,6-dioxopiperidin-3-yl)-4-((5-methyl-2-(2-methylpyridin-4-yl)-6-oxo-5,6,7,8-tetrahydro-1,5-naphthyridin-3-yl)amino)isoindoline-1,3-dione] was tested, and the DC50 (WIZ) was 89 nM, the DC50 (ZBTB7A) was 256 nM and the “HBF AUC” value (HbF) was “+ (+ = 15 ≤ AUC < 100)”.
`Cc1cc(-c2cc3c(cc2Nc2cccc4c2C(=O)N(C2CCC(=O)NC2=O)C4=O)N(C)C(=O)CC3C)ccn1` (stereo not drawn) [Compound 96, 4-((1,4-dimethyl-6-(2-methylpyridin-4-yl)-2-oxo-1,2,3,4-tetrahydroquinolin-7-yl)amino)-2-(2,6-dioxopiperidin-3-yl)isoindoline-1,3-dione] was tested, and the DC50 (WIZ) was 11 nM, the DC50 (ZBTB7A) was 13 nM and the “HBF AUC” value (HbF) was “++ (++ = 100 ≤ AUC < 150)”.

— patent US20250333407A1, “Compounds and Their Use for Treatment of Hemoglobinopathies” (Bristol-Myers Squibb Company, priority 2024, published 2025)
